31 compounds from US20080269213A1, “8-Hydroxyquinoline compounds and methods thereof” (Wyeth, priority 2006, published 2008) can be followed below.

In one test the target is T1, recombinant human Aggrecanase-2 Agg2-Phe628 (Homo sapiens, UniProt Q9UNA0).
T1 sequence (Q9UNA0 262-628 limits assumed): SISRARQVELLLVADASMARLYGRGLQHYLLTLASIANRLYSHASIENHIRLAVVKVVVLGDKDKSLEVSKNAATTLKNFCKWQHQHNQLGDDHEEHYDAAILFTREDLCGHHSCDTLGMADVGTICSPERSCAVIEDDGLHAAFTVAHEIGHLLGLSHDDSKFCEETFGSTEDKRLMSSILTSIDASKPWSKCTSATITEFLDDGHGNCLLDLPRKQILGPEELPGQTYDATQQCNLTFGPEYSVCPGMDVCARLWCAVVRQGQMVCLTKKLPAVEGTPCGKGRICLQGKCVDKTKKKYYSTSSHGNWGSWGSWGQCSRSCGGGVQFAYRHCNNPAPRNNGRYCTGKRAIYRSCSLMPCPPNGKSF
Nature of the test: Aggrecanase 2 in vitro enzyme assay (Agg-2 FRET, quenched fluorescent peptide substrate). Details: purified recombinant human Aggrecanase-2 Agg2-Phe628 (MW=41,737); This is a truncated form of full-length human aggrecanase-2; made in house; host or cells: CHO cells. Type of test: biochemical. To be noted: concentration not given. Here is the method:
A continuous assay was used in which the substrate was a synthetic peptide containing a fluorescent group (o-aminobenzyl, Abz), which was quenched by energy transfer to a 2,4-dinitrophenyl group (Dnp). The buffer used in this assay was 50 mM HEPES, pH 7.5, 100 mM NaCl, 5 mM CaCl2, 0.1% CHAPS, 5% glycerol. The source of enzyme was purified recombinant human Aggrecanase-2 Agg2-Phe628 (MW=41,737). This is a truncated form of full-length human aggrecanase-2 that was expressed in CHO cells and purified. The final concentration of Agg2-Phe628 was 0.5 μg/ml. […] It is a synthetic peptide that is designed after a portion of brevican, one of the naturally occurring substrates of Aggrecanase-2, of the sequence Abz-[…]-Dap(Dnp)-KK—NH2 (mass=1740). The concentration of this substrate stock was spectrophotometrically determined using the extinction coefficient at 354 nm of 18,172 M^−1cm^−1. […] The final concentration of substrate in the assay was 25 μM.
Test compounds (in duplicate) were serially diluted from 2 mM to 0.01 μM in 100% DMSO. The total reaction volume was 100 μl. The buffer and enzyme were added first followed by addition of 10× inhibitor from the dilution plate. Enzyme and buffer alone samples were included in order to obtain the maximal rate of substrate cleavage. […] Then substrate was added, mixed and the reaction monitored for 40 min at 30° C. in kinetic mode using λex: 340 nm and % λem: 420 (GeminiXS Molecular Devices).
Take `CC(C)(C)c1ccc(OCC(=O)NC(c2cccc(F)c2)c2cc(Cl)c3cccnc3c2O)cc1` (stereo not shown) [2-(4-tert-butylphenoxy)-N-[(5-chloro-8-hydroxyquinolin-7-yl)(3-fluorophenyl)methyl]acetamide]: the “Agg-2 FRET Median PCT INHIB” value is reported as 43%. With `CC(C)(C)c1ccc(NCC(=O)NC(c2ccccc2Cl)c2cc(Cl)c3cccnc3c2O)cc1` (stereo not shown) [Example 20, N^2-(4-tert-butylphenyl)-N^1-[(5-chloro-8-hydroxyquinolin-7-yl)(2-chlorophenyl)methyl]glycinamide], the “Agg-2 FRET Median PCT INHIB” value is on record as 54%. On the same count and under the same terms, as for `Cc1ccc(C(NC(=O)CNc2ccc(C(C)(C)C)cc2)c2cc(Cl)c3cccnc3c2O)cc1` (stereo not shown) [Example 27, N^2-(4-tert-butylphenyl)-N^1-[(5-chloro-8-hydroxyquinolin-7-yl)(4-methylphenyl)methyl]glycinamide], the figure is 57%; as for `O=C(COc1ccc(Oc2ccccc2)cc1)NC(c1ccccc1)c1cc(Cl)c2cccnc2c1O` (stereo not shown) [Example 85, N-[(5-chloro-8-hydoxyquinolin-7-yl)(phenyl)methyl]-2-(4-phenoxyphenoxy)acetamide], 50%.

Staying with this test, now noted: read-out: Agg-2 FRET Median IC50.
As usually defined, the IC50 is the point on the concentration scale where inhibition reaches its midpoint. As for `CC(=O)c1ccc(OCC(=O)NC(c2cccc([N+](=O)[O-])c2)c2cc(Cl)c3cccnc3c2O)cc1` (stereo not shown) [2-(4-acetylphenoxy)-N-[(5-chloro-8-hydroxyquinolin-7-yl)(3-nitrophenyl)methyl]acetamide], the IC50 was 2.33 µM.

Turning to `O=C(COCc1ccccc1)NC(c1cccc(F)c1)c1cc(Cl)c2cccnc2c1O` (stereo not shown) [2-(benzyloxy)-N-[(5-chloro-8-hydroxyquinolin-7-yl)(3-fluorophenyl)methyl]acetamide], the IC50 worked out at 0.828 µM. With `O=C(CNc1cccnc1)NC(c1ccccc1Cl)c1cc(Cl)c2cccnc2c1O` (stereo not shown) [Example 18, N^1-[(5-chloro-8-hydroxyquinolin-7-yl)(2-chlorophenyl)methyl]-N^2-pyridin-3-ylglycinamide], the IC50 is 16.9 µM.

Regarding `Cc1cc(NCC(=O)NC(c2ccccc2Cl)c2cc(Cl)c3cccnc3c2O)ccc1Cl` (stereo not shown) [Example 19, N^1-[(5-chloro-8-hydroxyquinolin-7-yl)(2-chlorophenyl)methyl]-N^2-(4-chloro-3-methylphenyl)glycinamide], the IC50 turned out to be 1.48 µM.

On to `Cc1ccc(C(NC(=O)CNc2cccnc2)c2cc(Cl)c3cccnc3c2O)cc1` (stereo not shown) [Example 22, N^1-[(5-chloro-8-hydroxyquinolin-7-yl)(4-methylphenyl)methyl]-N^2-pyridin-3-ylglycinamide], for which the IC50 was found to be 9.79 µM. In the case of `CC(=O)c1ccc(NCC(=O)NC(c2ccc(C)cc2)c2cc(Cl)c3cccnc3c2O)cc1` (stereo not shown) [Example 24, N^2-(4-acetylphenyl)-N^1-[(5-chloro-8-hydroxyquinolin-7-yl)(4-methylphenyl)methyl]glycinamide], the IC50 came out at 1.12 µM.

Turning to `O=C(CNc1cccnc1)NC(c1cccc([N+](=O)[O-])c1)c1cc(Cl)c2cccnc2c1O` (stereo not shown) [Example 28, N^1-[(5-chloro-8-hydroxyquinolin-7-yl)(3-nitrophenyl)methyl]-N^2-pyridin-3-ylglycinamide], the IC50 stood at 1.56 µM. On the same count and under the same terms, the figure for `CC(=O)Nc1ccc(NCC(=O)NC(c2cccc([N+](=O)[O-])c2)c2cc(Cl)c3cccnc3c2O)cc1` (stereo not shown) [Example 31, N^2-[4-(acetylamino)phenyl]-N^1-[(5-chloro-8-hydroxyquinolin-7-yl)(3-nitrophenyl)methyl]glycinamide] is 2.77 µM; for `O=C(CNc1cccnc1)NC(c1cccc(F)c1)c1cc(Cl)c2cccnc2c1O` (stereo not shown) [Example 32, N^1-[(5-chloro-8-hydroxyquinolin-7-yl)(3-fluorophenyl)methyl]-N^2-pyridin-3-ylglycinamide] it is 15.1 µM.

For the compound `Cc1ccc(C)c(C(NC(=O)COc2ccccc2)c2cc(Cl)c3cccnc3c2O)c1` (stereo not shown) [Example 37, N-[(5-chloro-8-hydroxyquinolin-7-yl)(2,5-dimethylphenyl)methyl]-2-phenoxyacetamide], the IC50 is 1.49 µM. Consider `Cc1cc(C(NC(=O)COc2ccccc2)c2cccc([N+](=O)[O-])c2)c(O)c2ncccc12` (stereo not shown) [Example 46, N-[(8-hydroxy-5-methylquinolin-7-yl)(3-nitrophenyl)methyl]-2-phenoxyacetamide], for which the IC50 amounted to 1.32 µM. Still for that read-out and setting: the figure for `CN(CC(=O)NC(c1ccccc1Cl)c1cc(Cl)c2cccnc2c1O)Cc1ccccc1` (stereo not shown) [Example 52, N^2-benzyl-N^1-[(5-chloro-8-hydroxyquinolin-7-yl)(2-chlorophenyl)methyl]-N^2-methylglycinamide] is 1.31 µM; for `CN(CC(=O)NC(c1cccc(F)c1)c1cc(Cl)c2cccnc2c1O)Cc1ccccc1` (stereo not shown) [Example 55, N^2-benzyl-N^1-[(5-chloro-8-hydroxyquinolin-7-yl)(3-fluorophenyl)methyl]-N^2-methylglycinamide] it is 1.44 µM; for `Cc1ccc(C(NC(=O)CN(C)c2ccccc2)c2cc(Cl)c3cccnc3c2O)cc1` (stereo not shown) [Example 58, N^1-[(5-chloro-8-hydroxyquinolin-7-yl)(4-methylphenyl)methyl]-N^2-methyl-N^2-phenylglycinamide] it is 0.776 µM. The same measure, in the same setting: the figure for `Cc1ccc(C(NC(=O)CN(C)Cc2ccccc2)c2cc(Cl)c3cccnc3c2O)cc1` (stereo not shown) [Example 59, N^2-benzyl-N^1-[(5-chloro-8-hydroxyquinolin-7-yl)(4-methylphenyl)methyl]-N^2-methylglycinamide] is 1.28 µM; for `Cc1ccc(C(NC(=O)CNCc2ccccc2)c2cc(Cl)c3cccnc3c2O)cc1` (stereo not shown) [Example 60, N^2-benzyl-N^1-[(5-chloro-8-hydroxyquinolin-7-yl)(4-methylphenyl)methyl]glycinamide] it is 1.83 µM; for `CN(CC(=O)NC(c1cccc([N+](=O)[O-])c1)c1cc(Cl)c2cccnc2c1O)c1ccccc1` (stereo not shown) [Example 62, N^1-[(5-chloro-8-hydroxyquinolin-7-yl)(3-nitrophenyl)methyl]-N^2-methyl-N^2-phenylglycinamide] it is 0.559 µM. Turning to `O=C(CNCc1ccccc1)NC(c1cccc([N+](=O)[O-])c1)c1cc(Cl)c2cccnc2c1O` (stereo not shown) [Example 64, N^2-benzyl-N^1-[(5-chloro-8-hydroxyquinolin-7-yl)(3-nitrophenyl)methyl]glycinamide], the IC50 amounted to 0.765 µM. The same measure, in the same setting: as for `O=C(COc1ccccc1)NC(c1cccnc1)c1cc(Cl)c2cccnc2c1O` (stereo not shown) [Example 69, N-[(5-chloro-8-hydroxyquinolin-7-yl)(pyridin-3-yl)methyl]-2-phenoxyacetamide], the figure is 1.92 µM; as for `CN(C)c1ccc(C(NC(=O)COc2ccccc2)c2ccc3cccnc3c2O)cc1` (stereo not shown) [Example 99, N-[[4-(dimethylamino)phenyl](8-hydroxyquinolin-7-yl)methyl]-2-phenoxyacetamide], 5.54 µM; as for `O=C(COc1ccccc1)NC(c1ccc(F)cc1Cl)c1cc(Cl)c2cccnc2c1O` (stereo not shown) [N-[(2-chloro-4-fluorophenyl)(5-chloro-8-hydroxyquinolin-7-yl)methyl]-2-phenoxyacetamide], 1.09 µM.

Turning to `O=C(COc1ccccc1)NC(c1ccc(O)cc1Cl)c1cc(Cl)c2cccnc2c1O` (stereo not shown) [N-[(2-chloro-4-hydroxyphenyl)(5-chloro-8-hydroxyquinolin-7-yl)methyl]-2-phenoxyacetamide], the IC50 stood at 1.94 µM.

For the compound `O=C(COc1ccccc1)NC(c1ccccc1Cl)c1ccc2cccnc2c1O` (stereo not shown) [N-[(2-chlorophenyl)(8-hydroxyquinolin-7-yl)methyl]-2-phenoxyacetamide], the IC50 came to 2.5 µM. `O=C(COc1ccccc1)NC(c1ccc(F)c(Cl)c1)c1cc(Cl)c2cccnc2c1O` (stereo not shown) [N-[(3-chloro-4-fluorophenyl)(5-chloro-8-hydroxyquinolin-7-yl)methyl]-2-phenoxyacetamide]: the IC50 amounted to 1.04 µM. Same read-out and setting: the figure for `O=C(COc1ccccc1)NC(c1cccc(F)c1)c1ccc2cccnc2c1O` (stereo not shown) [N-[(3-fluorophenyl)(8-hydroxyquinolin-7-yl)methyl]-2-phenoxyacetamide] is 2.77 µM; for `O=C(COc1ccccc1)NC(c1ccc(Cl)cc1)c1ccc2cccnc2c1O` (stereo not shown) [N-[(4-chlorophenyl)(8-hydroxyquinolin-7-yl)methyl]-2-phenoxyacetamide] it is 3.38 µM. On the same count and under the same terms, the figure for `Cc1ccccc1C(NC(=O)COc1ccccc1)c1cc(Br)c2cccnc2c1O` (stereo not shown) [N-[(5-bromo-8-hydroxyquinolin-7-yl)(2-methylphenyl)methyl]-2-phenoxyacetamide] is 1 µM.
